Legend:
[1] = Maximum loading giving stable nanoparticles (FNP); format: physicochemical; conditions: PBA-b-PAA nanoparticles by FNP
Text: Increasing the percentage of core material necessitated the formation of larger particles. […] This may be because the addition of core material allows the PAA to more tightly pack due to charge shielding effects. Very high loadings of both lysozyme and vancomycin were obtained. Loading of lysozyme as high as 75 wt % was obtained without the formation of large precipitates, however, the particles were too large to analyze using dynamic light scattering (DLS).

[2] = Solubility in organic solvents; format: physicochemical; conditions: in chloroform and acetone

Compound | loading obtained with stable particles / without large precipitates [1] | solubility [2]
CN[C@H](CC(C)C)C(=O)N[C@H]1C(=O)N[C@@H](CC(N)=O)C(=O)N[C@H]2C(=O)N[C@H]3C(=O)N[C@H](C(=O)N[C@H](C(=O)O)c4cc(O)cc(O)c4-c4cc3ccc4O)[C@H](O)c3ccc(c(Cl)c3)Oc3cc2cc(c3O[C@@H]2O[C@H](CO)[C@@H](O)[C@H](O)[C@H]2O[C@H]2C[C@](C)(N)[C@H](O)[C@H](C)O2)Oc2ccc(cc2Cl)[C@H]1O [Vancomycin, vancomycin] | up to 90 wt % | poorly soluble
lysozyme | ≤ 75 wt % | –
